Results taken from patent US9120728B2, “Modulators of cortical dopaminergic- and NMDA-receptor-mediated glutamatergic neurotransmission” (INTEGRATIVE RESEARCH LABORATORIES SWEDEN AB, priority 2011, dated 2015).

Experiments:
MK-801 pre-treated rats = test: Reduction of MK-801-induced hyper-locomotion; type: in vivo; settings: Rattus norvegicus; MK-801 0.7 mg/kg i.p. 90 minutes before test compound; locomotor activity between 45 and 60 minutes after administration; 0-100 μmol/kg s.c.
Source text: Reduction of MK-801-Induced Hyper-Locomotion Another animal model of antipsychotic activity is based on administration of the glutamate antagonist MK-801. Glutamate antagonists (i.e. NMDA antagonists), can induce psychoses in man (see Psychopharmacology, 4th Generation of progress Chapter 101, p. 1205 and 1207) and induce behavioural aberrations in animals. Thus, the ability of a drug to affect schizophrenia and psychotic states can be measured using behavioural models based on experimentally-induced hypoglutamatergic states. In this study the NMDA antagonist MK-801 (0.7 mg/kg i.p.) was used to create a hypoglutamatergic state where the rats display abnormal, hyperactive behaviour.
Behavioural activity is measured using eight Digiscan activity monitors (RXYZM (16) TAO, Omnitech Electronics, Columbus, Ohio, USA), connected to an Omnitech Digiscan analyzer and an Apple Macintosh computer equipped with a digital interface board (NB DIO-24, National Instruments, USA). […]
Behavioural data from each activity monitor, representing the position (horizontal center of gravity and vertical activity) of the animal at each time, are recorded at a sampling frequency of 25 Hz and collected using a custom written LABView™ application. The data from each recording session are stored and analyzed with respect to distance traveled. […]

drug-naive rats = test: Effects on spontaneous locomotion (locomotor activity in drug-naive rats); type: in vivo, rat; settings: recorded for 60 minutes immediately after drug administration
Method: Prior art dopamine receptor antagonists are known to induce profound decrease in locomotor activity (catalepsy).
Behavioural activity is measured using eight Digiscan activity monitors (RXYZM (16) TAO, Omnitech Electronics, Columbus, Ohio, USA), connected to an Omnitech Digiscan analyzer and an Apple Macintosh computer equipped with a digital interface board (NB DIO-24, National Instruments, USA). Each activity monitor consists of a quadratic metal frame (W×L=40 cm×40 cm) equipped with photobeam sensors. During measurements of behavioural activity, a rat is put in a transparent acrylic cage (WxLxH, 40×40×30 cm) which in turn is placed in the activity monitor. Each activity monitor is equipped with three rows of infrared photobeam sensors, each row consisting of 16 sensors. Two rows are placed along the front and the side of the floor of the cage, at a 90° angle, and the third row is placed 10 cm above the floor to measure vertical activity. Photobeam sensors are spaced 2.5 cm apart. Each activity monitor is fitted in an identical sound and light attenuating box containing a weak house light and a fan.
The computer software is written using object oriented programming (LabVIEW®, National instruments, Austin, Tex., USA).
Behavioural data from each activity monitor, representing the position (horizontal center of gravity and vertical activity) of the animal at each time, are recorded at a sampling frequency of 25 Hz and collected using a custom written LABView™ application. The data from each recording session are stored and analyzed with respect to distance traveled. Each behavioural recording session lasts 60 min, starting approximately 4 min after the injection of test compound. Similar behavioural recording procedures are applied for drug-naïve and drug pre-treated rats. Rats pre-treated with d-amphetamine are given a dose of 1.5 mg/kg i.p. 10 min before the recording session in the activity monitor. Rats pre-treated with MK-801 are given a dose of 0.7 mg/kg i.p. 90 min before the recording session in the activity monitor. The results are presented as counts/60 minutes, or counts/30 minutes, in arbitrary length units. Statistical comparisons are carried out using Student's t-test against the control group. In MK-801 or amphetamine pre-treated animals, statistical comparisons are made against the MK801 or d-amphetamine controls, respectively.

[1] = test system: DOPAC (3,4-dihydroxyphenylacetic acid) in the rat striatum; test: Increase of DOPAC (3,4-dihydroxyphenylacetic acid) in the rat striatum after systemic administration; type: in vivo; settings: sc, estimated ED50 on increase of DOPAC in rat striatum, dose range 0-100 μmol/kg s.c., curve fitting
Source text: The increased turnover of dopamine in the terminal areas of the ascending dopaminergic projections of the mammalian brain can be illustrated by measuring of changes in biochemical indices in the brain with the characteristic features of dopamine antagonists, e.g. producing increases in concentrations of dopamine metabolites such as 3,4-dihydroxyphenyl-acetic acid (DOPAC) in the striatum.
After the behavioural activity sessions, the rats are decapitated and their brains rapidly taken out and put on an ice-cold petri-dish. The limbic forebrain, the striatum, the frontal cortex and the remaining hemispheral parts of each rat are dissected and frozen. Each brain part is subsequently analyzed with respect to its content of monoamines and their metabolites.
The monoamine transmitter substances (NA (noradrenaline), DA (dopamine), 5-HT (serotonin)) as well as their amine (NM (normethanephrine), 3-MT (3-methoxytyramine)) and acid (DOPAC (3,4-dihydroxyphenylacetic acid), 5-HIAA (5-hydroxyindoleacetic acid), HVA (homovanillic acid)) metabolites are quantified in brain tissue homogenates by HPLC separations and electrochemical detection
The analytical method is based on two chromatographic separations dedicated for amines or acids. Two chromatographic systems share a common auto injector with a 10-port valve and two sample loops for simultaneous injection on the two systems. Both systems are equipped with a reverse phase column (Luna C18(2), dp 3 μm, 50×2 mm i.d., Phenomenex) and electrochemical detection is accomplished at two potentials on glassy carbon electrodes (MF-1000, Bioanalytical Systems, Inc.). The column effluent is passed via a T-connection to the detection cell or to a waste outlet. This is accomplished by two solenoid valves, which block either the waste or detector outlet. By preventing the chromatographic front from reaching the detector, better detection conditions are achieved. The aqueous mobile phase (0.4 ml/min) for the acid system contains citric acid 14 mM, sodium citrate 10 mM, MeOH 15% (v/v) and EDTA 0.1 mM. Detection potentials relative to Ag/AgCl reference are 0.45 and 0.60V. […] Detection potentials relative to Ag/AgCl reference are 0.45 and 0.65V.
ED50 value for the increase of DOPAC in striatum is calculated by curve fitting. The evaluation is based on 40 animals over the dose range 0, 3.7, 11, 33 and 100 μmol/kg s.c. in two combined experiments. The DOPAC levels are normalised to control and fitted by least square minimization to the function “End-(End-Control)/(1+(dose/ED50)^slope)”. The four parameters (Control, End, ED50 and Slope) are fitted with the restrictions: ED50>0, 0.5<Slope<3, 350<End<400% of control. To estimate confidence levels for the parameters, the fit is repeated 100 times with a random evenly distributed squared weight (0 to 1) for every measurement value. Presented ED50-ranges cover 95% of these values.

**Q.** Which ED50 (MK-801 pre-treated rats) does the source give for `CCCNCCOc1cc(F)cc(S(C)(=O)=O)c1` [Example 1, N-[2-(3-fluoro-5-methylsulfonyl-phenoxy)ethyl]propan-1-amine] here?
**A.** 5.6 µmol/kg

**Q.** What about the Locomotor activity (drug-naive rats; 3.7 μmol/kg) of the same compound?
**A.** 8049 counts/60 min

**Q.** What about the Locomotor activity (drug-naive rats; 11 μmol/kg) of the same compound?
**A.** 7325 counts/60 min

**Q.** And the Locomotor activity (drug-naive rats; 33 μmol/kg)?
**A.** 6025 counts/60 min

**Q.** And the ED50 [1]?
**A.** 8.5 µmol/kg
